# Values quoted from earlier work, collected in patent US20200236944A1, “DIURON-CONTAINING FRUIT THINNING AGENT” (ADAMA AGAN LTD., priority 2017, published 2020).
# How the values were obtained:
# [1] = tested on: peach leaves; conditions: 100 ppm diuron
# [2] = tested on: orange trees; conditions: 2500 ppm diuron
smiles,measurement,setting,value
"CN(C)C(=O)Nc1ccc(Cl)c(Cl)c1 [diuron, 3-(3,4-dichlorophenyl)-1,1-dimethylurea]",Photosynthesis rate for peaches,[1],long-lasting and thus undesirably low
same,Fruiting of orange trees,[2],partially prevent the fruiting
